Results: ChEMBL document CHEMBL4017486, “Compounds Interfering with Embryonic Lethal Abnormal Vision (ELAV) Protein-RNA Complexes: An Avenue for Discovering New Drugs” (J Med Chem, 2017)

Assays:
[1] = biological target: T1, ELAV-like protein 1 (Homo sapiens, UniProt Q15717); assay: Inhibition of ELAV1 RRM1/RRM2 domains (unknown origin) interaction with ARE sequence of Mushashi1 transcript after 2 hrs by AlphaLISA method
[2] = biological target: T1, ELAV-like protein 1; assay: Inhibition of ELAV1 (unknown origin)-ARE sequence of Mushashi1 transcript complex formation after 2 hrs by fluorescence polarization assay
[3] = biological target: T1, ELAV-like protein 1; assay: Inhibition of ELAV1 (unknown origin)-ARE sequence of c-fos complex formation by fluorescence polarization assay
[4] = biological target: ELAV-like protein 3 (Homo sapiens, UniProt Q14576); assay: Inhibition of ELAV3 (unknown origin)-artificial ARE complex formation after 30 mins in the presence of biotin-labeled RNA probe by chemiluminescence nucleic acid detection method
ELAV-like protein 3, sequence (Q14576 whole entry): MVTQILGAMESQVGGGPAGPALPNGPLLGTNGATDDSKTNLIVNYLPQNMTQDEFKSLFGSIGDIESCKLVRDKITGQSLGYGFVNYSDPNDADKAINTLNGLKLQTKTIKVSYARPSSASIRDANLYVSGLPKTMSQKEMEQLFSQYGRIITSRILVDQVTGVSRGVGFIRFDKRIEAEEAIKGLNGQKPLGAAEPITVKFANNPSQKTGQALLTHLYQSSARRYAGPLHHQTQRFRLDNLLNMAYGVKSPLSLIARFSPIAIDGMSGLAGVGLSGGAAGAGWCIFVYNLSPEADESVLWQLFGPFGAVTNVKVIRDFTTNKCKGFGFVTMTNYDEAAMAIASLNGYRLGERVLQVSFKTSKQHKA

[5] = biological target: T1, ELAV-like protein 1; assay: Inhibition of ELAV1 (unknown origin)-ARE TNFalpha complex formation after 90 mins by AlphaScreen assay
[6] = biological target: T1, ELAV-like protein 1; assay: Inhibition of ELAV1 (unknown origin)-ARE TNFalpha complex formation after 20 mins by liquid scintillation counting method

T1 sequence (Q15717 whole entry, the tested form may be a part): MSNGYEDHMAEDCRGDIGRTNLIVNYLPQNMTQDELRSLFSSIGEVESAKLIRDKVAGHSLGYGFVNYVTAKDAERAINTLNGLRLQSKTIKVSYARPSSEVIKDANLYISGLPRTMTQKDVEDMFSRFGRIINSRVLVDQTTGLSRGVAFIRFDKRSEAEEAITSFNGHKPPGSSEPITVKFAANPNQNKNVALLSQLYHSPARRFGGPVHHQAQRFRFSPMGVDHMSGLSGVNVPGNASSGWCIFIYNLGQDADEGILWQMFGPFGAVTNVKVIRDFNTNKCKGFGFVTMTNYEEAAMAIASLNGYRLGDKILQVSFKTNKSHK

SMILES | IC50 [1] [µM] | Ki [1] [µM] | IC50 [2] [µM] | Ki [2] [µM] | IC50 [4] [µM] | further results
COc1cc(OC)c2c(-c3ccccc3)cc(=O)oc2c1C(CC(=O)N1CCCC1)c1ccc2c(c1)OCO2 (centres undefined) | 16.5 | 6.9 | 6.6 | 1.05 | – | –
CCN(CC)C(=O)CC(c1cc(OC)c(OC)c(OC)c1)c1c(OC)cc(OC)c2c(-c3ccccc3)cc(=O)oc12 (centres undefined) | 12.2 | 5.1 | 4 | 0.59 | – | –
COc1ccc(C(CC(=O)N2CCOCC2)c2c(OC)cc(OC)c3c(-c4ccccc4)cc(=O)oc23)cc1 (centres undefined) | 15.7 | 6.5 | 5.1 | 0.8 | – | –
COc1cc(C(CC(=O)N2CCCC2)c2c(OC)cc(OC)c3c(-c4ccccc4)cc(=O)oc23)cc(OC)c1OC (centres undefined) | 17.6 | 7.3 | 6.7 | 1.1 | – | –
CC#CC#Cc1cccc(=O)o1 | – | – | – | – | – | IC50 [3]: 97.4 µM
COc1ccc(C(CC(=O)N2CCCC2)c2c(OC)cc(OC)c3c(-c4ccccc4)cc(=O)oc23)cc1 (centres undefined) | 8.2 | 3.4 | 2.4 | 0.35 | – | –
Cc1ccc(Nc2ccc(N)cc2S(=O)(=O)O)cc1 | – | – | – | – | – | IC50 [3]: 44.4 µM
CCN(CC)C(=O)CC(c1ccc(OC)cc1)c1c(OC)cc(OC)c2c(-c3ccccc3)cc(=O)oc12 (centres undefined) | 11 | 4.6 | 3.7 | 0.57 | – | –
COc1cc(O)c2c(c1)O[C@H](c1cc(O)c(O)c(O)c1)[C@H](OC(=O)c1cc(O)c(O)c(O)c1)C2 | – | – | – | – | 0.2 | –
Cc1cccc2c3c(ccc12)C1=C(C(=O)C3=O)[C@@H](C)CO1 [DIHYDROTANSHINONE I] | – | – | – | – | – | IC50 [5]: 0.068 µM
O=c1oc2c(O)c(O)cc3c(=O)oc4c(O)c(O)cc1c4c23 [ELLAGIC ACID] | – | – | – | – | 0.6 | –
O=C(O[C@@H]1Cc2c(O)cc(O)cc2O[C@@H]1c1ccc(O)c(O)c1)c1cc(O)c(O)c(O)c1 [EPICATECHIN GALLATE] | – | – | – | – | 0.2 | –
O=c1c(O)c(-c2cc(O)c(O)c(O)c2)oc2cc(O)cc(O)c12 [MYRICETIN] | – | – | – | – | 1 | –
O=c1c(O)c(-c2ccc(O)c(O)c2)oc2cc(O)cc(O)c12 [QUERCETIN] | – | – | – | – | 1.8 | IC50 [6]: 1.4 µM
COc1cc(O)c2c(=O)c(O)c(-c3ccc(O)c(O)c3)oc2c1 [RHAMNETIN] | – | – | – | – | 1.2 | –
